Source: patent US20260337177A1, “TEAD CORE INHIBITORS FOR CANCER THERAPEUTICS” (University of Florida Research Foundation, Incorporated, priority 2023, published 2026)
pIC50: −log10 of the molar value.

What was measured:
NCI-H226 cells = experiment: NCI-H226 cell growth inhibition (CCK-8, 3 days); format: cell-based; conditions: Homo sapiens, NCI-H226, 72 h, NF2-deficient mesothelioma, read-out: Antiproliferative IC50, NCI-H226
Procedure: (§1) The inhibitory effects of compound 22 were assessed against YAP TEAD related NF2-deficient mesothelioma cell NCI-H226 and triple negative breast cancer cell Hs578T. The growth inhibition ratio was measured using a CCK-8 assay after 3 days of treatments.

Hs578T cells = experiment: Hs578T cell growth inhibition (CCK-8, 3 days); format: cell-based; conditions: Homo sapiens, Hs-578T, 72 h, triple negative breast cancer, read-out: Antiproliferative IC50, Hs578T
Procedure: as §1

TAZ-TEAD = experiment: Co-immunoprecipitation of endogenous TAZ and TEAD in NCI-H226 cells; format: cell-based; conditions: 1 μM, 24 hours
Procedure: To assess if compound 22 inhibits the interaction between YAP/TAZ and TEAD proteins within the cell, compound 22 was administered to NF2-deficient NCI-H226 cells for 24 hours. Subsequently, the endogenous TEAD protein was isolated through immunoprecipitation using a pan-TEAD antibody and examined the immunocomplexes for the presence of YAP/TAZ proteins using anti-YAP/TAZ antibodies (as depicted in FIG. 18).
[…] protein lysate extracted using lysis buffer were incubated with 5 μL pan-TEAD antibody (CST #13295, 33 g/ml) at 4 ° C overnight with rotation, and then incubated with 15 μL Protein G magnetic beads (Fisher #88847) at R.T. for 1 hour with rotation. After binding, beads were washed three times with lysis buffer and one time with ddH2O. IP samples were eluted using 1× gel loading buffer supplied with 20 mM DTT and boiled at 96 ° C for 10 min. […] protein lysate were used for input, and 3% IP flow-thru were used for binding efficiency control. *0 indicated DMSO control. For the detection process, primary antibodies used were: YAP/TAZ rabbit monoclonal antibody (mAb) at a dilution of 1:2000, CST #8418S; Pan-TEAD rabbit mAb at 1:2000, CST #13295S; and 3-actin mouse mAb at 1:8000, Sigma #A5316. Secondary antibodies applied in 1× TBST were: Rabbit IgG-HRP at 1:10000 and Mouse IgG-HRP also at 1:10000.

CTGF and CYR61 = CTGF and CYR61 expression in xenograft tumor tissue (western blotting); format: in vivo; conditions: vs vehicle groups
Source text: To elucidate the mechanism of compound 22-mediated antitumor activity in vivo, the expression level of CTGF and CYR61 in the tumor tissue were examined by western blotting.

In the case of `O=C(CCl)c1c[nH]c2cc(Cl)c(OCc3cccc(C(F)(F)F)c3)cc12` [Compound 22, 2-chloro-1-(6-chloro-5-((3-(trifluoromethyl)benzyl)oxy)-1H-indol-3-yl)ethan-1-one], the pIC50 (NCI-H226 cells) was 6.40, the pIC50 (Hs578T cells) was 5.59 and the “Co-IP of TAZ with pan-TEAD antibody” value (TAZ-TEAD) was “not affecting TAZ”. The “CTGF expression in tumor tissue” value (CTGF and CYR61) was “remarkable decrease” and the “CYR61 expression in tumor tissue” value (CTGF and CYR61) was “remarkable decrease”.
